The test system of one test is Commelina benghalensis. Description: Example 4 post-emergence application A-1, B and C-19, COMBE. Format: in vivo. The note with it: growth stage 13, 21 DAT, g ai/ha: A-1 1, B 50, C-19 30. The method, then:
(§1) In the examples below, using the method of S. R. Colby (1967) “Calculating synergistic and antagonistic responses of herbicide combinations”, Weeds 15, p. 22ff., the value E, which is expected if the activity of the individual active compounds is only additive, was calculated:
(§2) [formula] • where • X=percent activity using active herbicide A at an application rate a; • Y=percent activity using active herbicide B (e.g. mesotrione) at an application rate b; • E=expected activity (in %) by A+B at application rates a+b.
(§3) If the value found experimentally is higher than the value E calculated according to Colby, a synergistic effect is present.
(§4) Evaluation was carried out using a scale from 0 to 100. 100 means no emergence of the plants, or complete destruction of at least the above-ground parts, and 0 means no damage or normal course of growth. A good herbicidal activity is given at values of at least 70, and very good herbicidal activity is given at values of at least 85.
(§5) Post-Emergence Application of Herbicide A-1 (A-1), Mesotrione (B) and Pyroxasulfone (C-19)
(§6) Herbicide A-1 (342 g/l), mesotrione (100 g/l) and pyroxasulfone (500 g/l) were, together with addition of 0.5 v/v % MSO (methylated sed oil) as adjuvant, formulated in water as distribution medium (water volume 200 l/ha) and sprayed with commercial flat fan nozzles.

For a further test, the system named is Zea mays. Description: Example 4 post-emergence application A-1, B and C-19, ZEAMX. Format: in vivo. The settings on record: growth stage 12, 21 DAT, g ai/ha: A-1 2, B 50, C-19 30. The method, then:
as §1, §2, §3, §4, §5, §6

As to `Cn1nc(C(F)(F)F)c(CS(=O)(=O)C2=NOC(C)(C)C2)c1OC(F)F` [C-19, pyroxasulfone], the “% herbicidal activity” value in the test with Commelina benghalensis is given as 15%; in the test on Zea mays it was 0%.
